Assay results from PMC6934550 (Scientific Reports, 2019).
“And” between values parts separate entries of the source, which are not always exact repeats. Equal values may be shown once. “Also recorded” adds a separate entry of the source. Where a name gives a salt, the structure may show the parent alone. Read-outs that look alike come from different tables or passages of the source.

Tests used:
[1] = system: EBOV; details: cited from earlier work
[2] = rhesus monkey, in vivo
[3] = rhesus monkey, in vivo; remark: listed apart in the source
[4] = system: monocyte-derived macrophages (MDMs)
[5] = system: EBOV/Mak; set-up: species or system Rhesus macaques; details: rhesus monkey, in vivo
[6] = in vitro; details: African green monkey
[7] = rhesus monkey, in vivo; remark: listed apart in the source
[8] = in vivo; details: both, rhesus monkey, po; for AUC(0-t): AUClast
[9] = system: EBOV (Makona variant, EBOV/Mak); format: cell-based, Ebola virus
[10] = human, in vivo, 10 mg/kg; cited from earlier work
[11] = in vitro; details: human
[12] = in vitro; details: human; remark: listed apart in the source
[13] = 40 mg/kg, elimination phase half-life (t1/2), range among individual animals
[14] = read-out: IC50 range over cell types

SMILES | in vitro antiviral activity against EBOV [1] | Cmax (range) ([2]; 20 mg/kg) | cytotoxicity [4] | CC50 [6] [µM] | Cmax ([8]; 20 mg/kg, mean) [ng/mL] | Cmax ([8]; 40 mg/kg, mean) [ng/mL] | Tmax ([8]; 40 mg/kg, Tmax (range)) [h] | Tmax ([8]; 40 mg/kg, Tmax, mean) [h] | half-life [8, 13] [h] | Max effect [9] | IC50 [9, 14] [µM] | Cmax [10] [ng/mL] | in vitro antiviral activity against EBOV [9] | IC50 ([9]; read-out: IC50) | CC50 [12] [µM] | further results
CCN(CC)Cc1cc(Nc2ccnc3cc(Cl)ccc23)ccc1O [Amodiaquine dihydrochloride hydrate, amodiaquine dihydrochloride dihydrate] | known to have in vitro antiviral activity against EBOV | 7.8‒31.9 | elevated cytotoxicity | 40.1 | 17.1 | 53.7 | 0.5 to 8 | 5 | 3 to 28 | 100% at 30 and 100% at 40 | 3.2 to 27.9 | 29.2 ± 10.9 |  |  |  | in vitro EBOV inhibition [1]: potent EBOV inhibitor; Tmax, mean ([2]; both, po, 20 mg/kg): 3 h; plasma levels of AQ [3]: negligible levels of AQ in all but five plasma samples; RNA levels at necropsy [5]: 10^9–10^11 viral RNA copies/ml; clinical signs, febrile illness, weight loss versus control [5]: Clinical signs did not differ significantly between the groups; hematology and serum chemistry versus control [5]: followed the same trends as the control animal values; plasma viral load (RT-qPCR, plaque assay), words [5]: did not reduce plasma viral RNA copies or infectious virus titer; survival / efficacy [5]: All animals were euthanized or succumbed to disease by day 8 postexposure; also recorded: did not result in a survival benefit or decrease of disease signs; also recorded: did not result in a survival benefit or decrease of disease symptoms; also recorded: did not have a beneficial effect on survival or the symptoms of EVD; Median time to disposition ([5]; po, 20 mg/kg): 7 days and 6 days; ALT and AST elevation [7]: 2.6- to 6.3 fold; blood pressure [7]: lower blood pressure readings than at predose; clinical observations [7]: hypoactivity, shivering (muscle tremors) and/or diarrhea; tolerability [7]: well-tolerated; AUC(0-t) ([8]; 20 mg/kg, mean): 74 ng·h/mL; Tmax ([8]; 20 mg/kg, Tmax, mean): 5 h; AUC(0-inf) ([8]; 40 mg/kg, AUCinf, mean): 324 ng·h/mL; AUC(0-t) ([8]; 40 mg/kg, mean): 258 ng·h/mL
C[C@H]1[C@H](OC(=O)CCC(=O)O)O[C@@H]2O[C@@]3(C)CC[C@H]4[C@H](C)CC[C@@H]1[C@@]24OO3 [Artesunate, artesunate] |  |  |  | > 40 |  |  |  |  |  |  |  |  | weak or undetectable; also recorded: minimal to no in vitro antiviral activity | 17.2 ± 1.2 µM | > 40 | activity against EBOV [1]: no activity against EBOV has been demonstrated; CC50 [11]: > 40 µM
C[C@H]1[C@@H](O)O[C@@H]2O[C@@]3(C)CC[C@H]4[C@H](C)CC[C@@H]1[C@@]24OO3 [Dihydroartimesinin, dihydroartemisinin] |  |  |  | > 40 |  |  |  |  |  | 64% at 40 and 49% at 40 |  |  | weak or undetectable; also recorded: minimal to no in vitro antiviral activity | 31.5 µM and 35.2 µM | > 40 | 
CCNCc1cc(Nc2ccnc3cc(Cl)ccc23)ccc1O [N-Desethylamodiaquine hydrochloride, N-desethylamodiaquine hydrochloride] | known to have in vitro antiviral activity against EBOV | 203‒369 | elevated cytotoxicity | 33.1 | 287 | 618 | 0.5 to 8 | 5 | 12 to 51 | 100% at 40 and 80% at 40 | 2.8 to 30 | 268.7 ± 70.8 |  |  |  | AUClast and AUCinf, fold higher for DEAQ than for AQ ([2]; both, po): 2.5- to 3 fold; t1/2 ([2]; both, po, 20 mg/kg): 15 h; plasma levels of DEAQ ([3]; Chinese origin): detectable in all treated animals from both groups 2 and 3; half-life ([8]; 20 mg/kg, t1/2, mean): 15.6 h
